# Assay results from patent US10308628B2, “Heterocyclic compounds and methods for their use” (NOVARTIS AG, priority 2015, dated 2019).
# Target: human AT2 receptor (Homo sapiens (Human), UniProt P50052)
# Experiment: AT2 receptor binding assay ([125I]CGP 42112A displacement, CHO-K1 cell membranes)
# Conditions: membranes of CHO-K1 cells stably expressing human AT2 receptor; 0.05 nM [125I]CGP 42112A; Ki derived from IC50 by Cheng-Prussoff equation
# Procedure: Reagents were purchased from Sigma-Aldrich, unless otherwise specified. Dialyzed fetal bovine serum (FBS) was from Life Technologies (cat. no. 10073772). Valiscreen® human angiotensin AT2 receptor cell line (cat. no. ES-070-C), [^125I]CGP 42112A (cat. no. NEX324025UC) and MicroScint™ 40 (cat. no. 6013641) were purchased from PerkinElmer. CGP 42112A (cat. no. 2569) and PD 123,319 ditrifluoroacetate (cat. no. 1361) were from Tocris Biosciences.
# 6. […] Compound Preparation
# Compounds were prepared from 10 mM stock solutions in 100% DMSO. Dilutions were made using electronic multichannel pipettes.
# Controls • Total binding (high control) was determined in the absence of unlabelled ligand. A solution of 10% DMSO in assay buffer was prepared. • Non-specific binding (low control) was determined in the presence of a vast excess (10 μM) of PD 123,319. 1 mM stock solution of PD 123,319 in water was diluted […] with 10% DMSO in assay buffer.
# 15 μL compound solution was transferred to duplicate wells of assay plate. 5 compounds were tested per plate. 15 μL control solutions were transferred to columns 1 and 12 of assay plate.
# human AT2 receptor, sequence (P50052 whole entry): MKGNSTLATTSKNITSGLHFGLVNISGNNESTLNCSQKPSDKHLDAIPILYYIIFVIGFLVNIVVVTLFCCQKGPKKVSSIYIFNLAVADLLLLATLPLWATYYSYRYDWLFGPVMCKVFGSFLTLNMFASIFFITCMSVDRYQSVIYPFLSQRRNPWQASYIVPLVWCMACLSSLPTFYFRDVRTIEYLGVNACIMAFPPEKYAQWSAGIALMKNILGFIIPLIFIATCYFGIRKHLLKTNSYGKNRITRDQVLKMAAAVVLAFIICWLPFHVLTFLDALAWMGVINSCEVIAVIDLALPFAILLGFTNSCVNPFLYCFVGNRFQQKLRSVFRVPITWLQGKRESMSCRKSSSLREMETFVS
row,SMILES,Ki
1,"O=C(O)[C@@H]1C[C@H](N2CCCOc3cc(F)c(F)cc32)CCN1C(=O)C(c1ccccc1)c1ccccc1 [Compound 1, (2S,4R)-4-(7,8-Difluoro-3,4-dihydrobenzo[b][1,4]oxazepin-5 (2H)-yl)-1-(2,2-diphenylacetyl)piperidine-2-carboxylic acid]",7 nM
2,"O=C(O)[C@@H]1C[C@H](N2CCCOc3cc(F)ccc32)CCN1C(=O)C(c1ccccc1)c1ccccc1 [Compound 2, (2S,4R)-1-(2,2-Diphenylacetyl)-4-(8-fluoro-3,4 dihydrobenzo[b][1,4]oxazepin-5(2H)-yl)piperidine-2-carboxylic acid]",9 nM

# Further compounds by falling Ki, results first:
row,Ki,SMILES
1,17 nM,"O=C(O)[C@@H]1C[C@H](N2CCCOc3ccc(F)cc32)CCN1C(=O)C(c1ccccc1)c1ccccc1 [Compound 3, (2S,4R)-1-(2,2-Diphenylacetyl)-4-(7-fluoro-3,4dihydrobenzo[b][1,4]oxazepin-5(2H)-yl)piperidine-2-carboxylic acid]"
2,15 nM,"O=C(O)[C@@H]1C[C@H](N2CCCOc3ccccc32)CCN1C(=O)C(c1ccccc1)c1ccccc1 [Compound 4, (2S,4R)-4-(3,4-Dihydrobenzo[b][1,4]oxazepin-5(2H)-yl)-1-(2,2-diphenylacetyl)piperidine-2-carboxylic acid]"
3,9 nM,"COc1ccc2c(c1)CCCCN2[C@@H]1CCN(C(=O)C(c2ccccc2)c2ccccc2)[C@H](C(=O)O)C1 [Compound 5, (2S,4R)-1-(2,2-Diphenylacetyl)-4-(7-methoxy-2,3,4,5-tetrahydro-1H-benzo[b]azepin-1-yl)piperidine-2-carboxylic acid]"
